The source of these data is ChEMBL document CHEMBL1152847, “Molecular modeling and inhibition of phospholipase A2 by polyhydroxy phenolic compounds” (Eur J Med Chem, 2009).

A short description of experiment [1]: Inhibition of Crotalus adamanteus venom PLA2 assessed as effect on 1-hexadecanoyl-2-(1-pyrenedecanoyl)-sn-glycero-3-phosphoglycerol hydrolysis at 0.15 uM.
Experiment [2] is described as follows: Inhibition of Crotalus adamanteus venom PLA2 assessed as effect on 1-hexadecanoyl-2-(1-pyrenedecanoyl)-sn-glycero-3-phosphoglycerol hydrolysis at 0.30 uM.
In experiment [3] the test system is Crotalus adamanteus. Put plainly: Activity of Crotalus adamanteus venom PLA2 assessed as 1-hexadecanoyl-2-(1-pyrenedecanoyl)-sn-glycero-3-phosphoglycerol hydrolysis at 0.30 uM.
For experiment [4], the system named is Crotalus adamanteus. Put plainly: Activity of Crotalus adamanteus venom PLA2 assessed as 1-hexadecanoyl-2-(1-pyrenedecanoyl)-sn-glycero-3-phosphoglycerol hydrolysis at 0.15 uM.
Experiment [5] concerns Crotalus adamanteus. Put plainly: Inhibition of Crotalus adamanteus venom PLA2-induced edema in Swiss mouse at 50 ug, id. The class given is functional, organism-based.

The source made the active and inactive calls. No cut-off for these calls is given here.

Regarding `CC(=O)c1ccc(O)cc1O`, the Ki worked out at 33.3 nM in experiment [1] and 32.1 nM in experiment [2]. Also, the Km in the experiment with Crotalus adamanteus [3] worked out at 7.57 mM; in the experiment with Crotalus adamanteus [4] it was 4.03 mM. In addition, the Vmax came to 18.2 nmol/min in the experiment on Crotalus adamanteus [3] and 18.1 nmol/min with Crotalus adamanteus [4].

On to `CC(=O)c1c(O)cccc1O`, for which the values for the Ki in experiment [1] and in experiment [2] were 30.1 nM and 31.2 nM, respectively. Further, the Km was 7.78 mM with Crotalus adamanteus [3] and 4.25 mM in the experiment on Crotalus adamanteus [4]. Moreover, the Vmax was 18 nmol/min in the experiment with Crotalus adamanteus [3] and 18.2 nmol/min in the experiment with Crotalus adamanteus [4].

As for `CC(=O)c1c(O)cc(O)cc1O` [2,4,6-TRIHYDROXYACETOPHENONE], the Ki in experiment [1] was found to be 8.9 nM; in experiment [2] it was 8.74 nM. Besides, the Km in the experiment with Crotalus adamanteus [3] was found to be 28.2 mM; with Crotalus adamanteus [4], 15.1 mM. The Vmax in the experiment on Crotalus adamanteus [3] is 18.3 nmol/min; with Crotalus adamanteus [4], 18 nmol/min. Besides, the result in the experiment on Crotalus adamanteus [5] was Active.

As to `Oc1cc(O)cc(O)c1` [PHLOROGLUCINOL], the values for the Ki in experiment [1] and in experiment [2] were 8.77 nM and 8.86 nM, respectively. Also, the Km with Crotalus adamanteus [3] stood at 23.2 mM; with Crotalus adamanteus [4] it was 12.1 mM. In addition, the values for the Vmax in the experiment on Crotalus adamanteus [3] and in the experiment with Crotalus adamanteus [4] were 18 nmol/min and 18.1 nmol/min, respectively. For the same compound, the outcome with Crotalus adamanteus [5] was Active.

As for `Oc1cccc(O)c1` [RESORCINOL], the figures for the inhibition constant (Ki) in experiment [1] and in experiment [2] were 8.83 nM and 8.72 nM, respectively. Moreover, the Km in the experiment on Crotalus adamanteus [3] was 24.8 mM; in the experiment with Crotalus adamanteus [4], 12.6 mM. For the same compound, the Vmax stood at 18 nmol/min in the experiment with Crotalus adamanteus [3] and 18.1 nmol/min with Crotalus adamanteus [4]. In addition, the result in the experiment with Crotalus adamanteus [5] was Active.

What is called Ki is the dissociation constant of the complex between target and ligand, obtained from inhibition or displacement. A word on the Km: it is the concentration of substrate that gives half-maximal velocity. A word on the Vmax: it is the top rate of the reaction or transport when substrate is in excess.
